Data published in PubChem BioAssay AID1963970 (Molecular Pharmacology Branch, DTP, NCI, 2024).
Each block holds one compound with its values, some of them ahead of it.

System: 931267-113-T-J1-PDC multicell spheroid viability
Assay: Anticancer human tumor 931267-113-T-J1-PDC patient-derived colon adenocarcinoma cell line growth inhibition [PI3K]
Settings: for IC50: curve of first compound; for viability, T/C: stronger effect = lower value
Excerpt: Combinatorial screen of targeted agents with the PI3K inhibitors inavolisib, alpelisib, duvelisib, and copanlisib in multi-cell type tumor spheroids
A high-throughput screen of multi-cell type tumor spheroids was designed to identify active combinations of targeted small molecules and PI3K pathway inhibitors. Complex spheroids include a stromal component modeled by human endothelial cells (HUVEC) and fibroblasts modeled by human mesenchymal stem cells (MSCs). The concentration ranges selected for each drug and investigational agent were based upon clinically achievable concentrations if the clinical Cmax of the agent was known.
Compounds. The drugs and investigational agents: inavolisib (NSC800729), alpelisib (NSC765974), duvelisib (NSC772469), copanlisib (NSC816437), ipatasertib (NSC767898), afuresertib (NSC778305), talazoparib (NSC767125), sapanisertib (NSC764658), selumetinib (NSC741078), tovorafenib (DAY101, NSC766906), vemurafenib (NSC761431), ravoxertinib (NSC781343), sotorasib (NSC818433), MRTX1133 (NSC 836407), abemaciclib (NSC 768073), palbociclib (NSC758247), venetoclax (NSC 766270), SY5609 (NSC837396), enzalutamide (NSC755605), and darolutamide (NSC825331), were obtained from the National Cancer Institute (NCI) Developmental Therapeutics Program Chemical Repository. The FDA-approved anticancer drug set is available from the NCI Developmental Therapeutics Program. […] The stock solutions were prepared in dimethyl sulfoxide (DMSO, Sigma-Aldrich, St. Louis, MO, cat. D2650) at 800-fold the tested concentration and stored at -70 degrees C prior to their use. All drugs and investigational agents were tested over a range starting from a high concentration at or near the clinical Cmax and decreasing in half-log increments. If the clinical Cmax for an agent had not been determined, the highest concentration tested was 10 microM.
Cell Culture. All cells were maintained in an incubator at 37 degrees C and 5% CO2 with 95% humidity. The PDC lines were cultured according to standard operating procedures established by the NCI PDMR (https://pdmr.cancer.gov/sops/default.htm). All PDCs were thawed and cultured in Matrigel-coated flasks prepared with a working solution of 1X Ham's F-12 nutrient mix, without supplementation (Invitrogen, Waltham, MA, cat. 11765054), 100 U/mL penicillin-streptomycin (Invitrogen, cat. 15140122), and 2.5% Matrigel (Corning Inc., Corning, NY, cat. 354248) for the first three passages. The 354836-022-R-J1-PDC, 475296-252-R-J1-PDC, and 997726-040-R-J2-PDC lines were cultured in 6A media, which includes advanced DMEM/F-12 (Thermo Fisher Scientific, cat. 12634028), 10 mM HEPES (Thermo Fisher Scientific, cat. 15630080), 1X GlutaMAX supplement (Thermo Fisher Scientific, cat. 35050061), 0.1 mg/mL primocin (InvivoGen, San Diego, CA, cat. ant-pm-2), 10% defined fetal bovine serum, heat inactivated (HyClone Laboratories Inc., Logan, UT, cat. SH30070.03HI), 50% L-WRN conditioned media (ATCC, cat. CRL-3276), 1.25 mM N-Acetyl-L-cysteine (Sigma-Aldrich, cat. A9165), 10 mM nicotinamide (Sigma-Aldrich, cat. N0636), 1X B-27 supplement (Thermo Fisher Scientific, cat. 17504044), 1X N-2 supplement (Thermo Fisher Scientific, cat. 17502048), and 10 microM Y-27632 dihydrochloride (Tocris Bioscience, Bristol, United Kingdom, cat. 1254). The 624824-186-R-J2-PDC line was cultured in 6C/Colon 1B media, which includes all 6A media components plus 50 ng/mL human EGF recombinant protein (Thermo Fisher Scientific, cat. PHG0311). […]

[1] = second compound 0.00316 µM, first compound 0.0316 µM
[2] = second compound 0.00316 µM, first compound 0.1 µM
[3] = second compound 0.00316 µM, first compound 0.316 µM
[4] = second compound 0.00316 µM, first compound 1 µM
[5] = second compound 0.00316 µM, first compound 3.16 µM
[6] = second compound 0.00316 µM, first compound 10 µM
[7] = second compound 0.01 µM, first compound 0.0316 µM
[8] = second compound 0.01 µM, first compound 0.1 µM
[9] = second compound 0.01 µM, first compound 0.316 µM
[10] = second compound 0.01 µM, first compound 1 µM
[11] = second compound 0.01 µM, first compound 3.16 µM
[12] = second compound 0.01 µM, first compound 10 µM
[13] = second compound 0.0316 µM, first compound 0.0316 µM
[14] = second compound 0.0316 µM, first compound 0.1 µM
[15] = second compound 0.0316 µM, first compound 0.316 µM
[16] = second compound 0.0316 µM, first compound 1 µM
[17] = second compound 0.0316 µM, first compound 3.16 µM
[18] = second compound 0.0316 µM, first compound 10 µM
[19] = second compound 0.1 µM, first compound 0.0316 µM
[20] = second compound 0.1 µM, first compound 0.1 µM
[21] = second compound 0.1 µM, first compound 0.316 µM
[22] = second compound 0.1 µM, first compound 1 µM
[23] = second compound 0.1 µM, first compound 3.16 µM
[24] = second compound 0.1 µM, first compound 10 µM
[25] = second compound 0.316 µM, first compound 0.0316 µM
[26] = second compound 0.316 µM, first compound 0.1 µM
[27] = second compound 0.316 µM, first compound 0.316 µM
[28] = second compound 0.316 µM, first compound 1 µM
[29] = second compound 0.316 µM, first compound 3.16 µM
[30] = second compound 0.316 µM, first compound 10 µM
[31] = second compound 1 µM, first compound 0.0316 µM
[32] = second compound 1 µM, first compound 0.1 µM
[33] = second compound 1 µM, first compound 0.316 µM
[34] = second compound 1 µM, first compound 1 µM
[35] = second compound 1 µM, first compound 3.16 µM
[36] = second compound 1 µM, first compound 10 µM
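Also: viability read 7 days after compound addition.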

- IC50 (second compound 0.00316 µM): > 10 µM
- IC50 (second compound 0.01 µM): > 10 µM
- IC50 (second compound 0.0316 µM): > 10 µM
- IC50 (second compound 0.1 µM): > 10 µM
- IC50 (second compound 0.316 µM): > 10 µM
- IC50 (second compound 1 µM): > 10 µM
SMILES: CC(Cn1ccc(-c2ccc(C#N)c(Cl)c2)n1)NC(=O)c1cc(C(C)O)[nH]n1 (centres undefined) + CC(Nc1ccc2c(c1)OCCn1cc(N3C(=O)OCC3C(F)F)nc1-2)C(N)=O
- viability, T/C [1]: 88.4%
- viability, T/C [2]: 101%
- viability, T/C [3]: 98.5%
- viability, T/C [4]: 110%
- viability, T/C [5]: 111%
- viability, T/C [6]: 101%
- viability, T/C [7]: 102%
- viability, T/C [8]: 103%
- viability, T/C [9]: 106%
- viability, T/C [10]: 115%
- viability, T/C [11]: 113%
- viability, T/C [12]: 110%
- viability, T/C [13]: 107%
- viability, T/C [14]: 106%
- viability, T/C [15]: 101%
- viability, T/C [16]: 89.8%
- viability, T/C [17]: 112%
- viability, T/C [18]: 91.5%
- viability, T/C [19]: 98.5%
- viability, T/C [20]: 98.8%
- viability, T/C [21]: 101%
- viability, T/C [22]: 94.8%
- viability, T/C [23]: 103%
- viability, T/C [24]: 79.8%
- viability, T/C [25]: 92.4%
- viability, T/C [26]: 90.5%
- viability, T/C [27]: 86.8%
- viability, T/C [28]: 80.2%
- viability, T/C [29]: 90.4%
- viability, T/C [30]: 72.8%
- viability, T/C [31]: 76.4%
- viability, T/C [32]: 76.8%
- viability, T/C [33]: 74.2%
- viability, T/C [34]: 74.8%
- viability, T/C [35]: 76.1%
- viability, T/C [36]: 59.2%

- IC50 (second compound 0.00316 µM): 8.42 µM
- IC50 (second compound 0.01 µM): 3.65 µM
- IC50 (second compound 0.0316 µM): 4.15 µM
- IC50 (second compound 0.1 µM): 2.89 µM
- IC50 (second compound 0.316 µM): 1.74 µM
- IC50 (second compound 1 µM): 1.09 µM
SMILES: Cn1nccc1Nc1nccc(-c2ccn(C(CO)c3ccc(Cl)c(F)c3)c(=O)c2)n1 (centres undefined) + CC(Nc1ccc2c(c1)OCCn1cc(N3C(=O)OCC3C(F)F)nc1-2)C(N)=O
- viability, T/C [1]: 96.7%
- viability, T/C [2]: 98.6%
- viability, T/C [3]: 88.6%
- viability, T/C [4]: 81.2%
- viability, T/C [5]: 64.5%
- viability, T/C [6]: 47.4%
- viability, T/C [7]: 99%
- viability, T/C [8]: 92.4%
- viability, T/C [9]: 97.2%
- viability, T/C [10]: 79.9%
- viability, T/C [11]: 52.3%
- viability, T/C [12]: 37.2%
- viability, T/C [13]: 99.5%
- viability, T/C [14]: 91.5%
- viability, T/C [15]: 82.6%
- viability, T/C [16]: 74.3%
- viability, T/C [17]: 54.4%
- viability, T/C [18]: 33.1%
- viability, T/C [19]: 102%
- viability, T/C [20]: 86.1%
- viability, T/C [21]: 86.1%
- viability, T/C [22]: 69.8%
- viability, T/C [23]: 46.5%
- viability, T/C [24]: 25.9%
- viability, T/C [25]: 91.7%
- viability, T/C [26]: 76.2%
- viability, T/C [27]: 73%
- viability, T/C [28]: 61.8%
- viability, T/C [29]: 38.6%
- viability, T/C [30]: 18%
- viability, T/C [31]: 72.8%
- viability, T/C [32]: 76.5%
- viability, T/C [33]: 68.8%
- viability, T/C [34]: 51%
- viability, T/C [35]: 29.2%
- viability, T/C [36]: 17.7%
